Results from patent US20210177881A1, “MEDICAMENT FOR PREVENTING AND/OR TREATING PAIN AND/OR FEVER, COMPOSITE PRODUCT AND USE THEREOF” (SHANGHAI TONGLIAN PHARMACEUTICAL CO., LTD., priority 2018, published 2021).

Assays:
[1] = tested on: rats of the LPS fever model; assay: LPS-induced common fever model in rats; format: in vivo, Sprague Dawley rats; conditions: 30 mg/kg intragastric
Protocol: Male healthy Sprague Dawley rats (SPF), with a weight of 220-260 g, purchased from Liaoning Changsheng Biotechnology Co., Ltd., with a license number of SCXK (Liao) 2015-0001. […] Sodium chloride injection ([…], 500 mL): (Shijiazhuang No.4 Pharmaceutical Co., Ltd), Batch number: 101217406; 0.9% sodium chloride injection was dissolved and diluted to 1 mg/ml, then packed in EP tubes and stored at −80 DEG C. for later use; immediately before use, it was diluted with 0.9% sodium chloride injection into a sterile injection of 10 μg /ml(100 μg /kg). Male SD rats, with a weight of 220-260 g, were fed adaptively for 3 days, ate food and drank water freely with 12 hours of day-night circle. […] Each group was administrated with the drug based on 1 ml/100 g body weight by intragastric administration.

[2] = tested on: rats of the dry yeast fever model; assay: Common fever model of rats induced by dry yeast; format: in vivo; conditions: 30 mg/kg intragastric
Protocol: Male SD rats, with a weight of 220-260 g, were fed adaptively for 3 days, ate food and drank water freely with 12 hours of day-night circle. […] Each group was administrated with the drug based on 1 ml/100 g body weight by intragastric administration. […] Operating steps: except that the LPS in Experiment 1 was replaced by the dry yeast, other experimental operating steps and dosage selections were the same as those in Experiment 1.

[3] = literature reports; cited from earlier work
mice [4] = assay: Analgesia experiment on a hot plate in mice; format: in vivo, Kunming mice; conditions: 15 mg/kg
Text: The mouse hot plate method is a classic method for screening analgesics. Its principle is to put the mouse on a hot plate heated to a constant temperature of (55±0.1 DEG C.) in advance, and when the foot of the mouse is stimulated by the hot plate to produce pain, the time required for foot licking is taken as the pain threshold, which is taken as the observation index, and the changes of threshold before and after medication are compared to evaluate the analgesic effect.
Before the experiment, the mice in each group were given intragastric administration. The mice in the blank control group were given the same volume of normal saline every day for 3 consecutive days.
The mice were put on a hot plate pain meter heated to 55 DEG C. in advance, and the time from putting into the hot plate to licking hind feet was recorded with a stopwatch as the pain threshold of the mice. […] It was measured once at 30, 60, 90 and 120 min after administration. After the end of the experiment, the percentage of pain threshold increase was calculated according to the measured average value of pain threshold. The percentage of pain threshold increase %=(an average pain threshold after administration−an average pain threshold before administration)÷the average pain threshold before administration×100%.

[5] = tested on: rats with tibial cancer pain; assay: van Frey mechanical pain threshold in rats with tibial cancer pain (Walker256); format: in vivo, rat
Protocol: Walker rat breast cancer cells were purchased from Shanghai Institute of Biomedical Engineering. The abdominal cavity of female Wistar rats of 70-80 g was inoculated with 1 ml of ascites tumor (about 2×10^7 cells /ml). After 7-10 days, 5 ml of ascites was extracted and centrifuged for 3 minutes (1300 rpm). After precipitation, washing was performed with 10 ml PBS, and then centrifuged and precipitated again. Then, resuspending was performed with PBS, counting was performed, the cell concentration was adjusted to 1×10^7 cells/ml by PBS and placed in an ice box for later use.
Rats were anesthetized by intraperitoneal injection of 10% chlorate hydrate (4 ml/kg body weight), a skin was prepared at the right knee joint, and the skin was disinfected with 75% alcohol. The knee joint was fixed with the left hand to make the skin on its surface tense. A hole with a depth about 1 cm was drilled along the longitudinal axis of tibia at the medial edge of patellar ligament of the knee joint with a 7# needle. Then, a microsampler with tumor cells (before injection, 1 μl of air, 2 μl of gelatin sponge aqueous solution, 1 μl of air, 4 μl of tumor cells or PBS were inhaled in turn) was used, and 4 μl of tumor cells was injected into the tibia bone marrow cavity; The rats in the control group were injected with the same amount of PBS, and finally all of them were sealed with 2 μl of gel sponge solution. After injection, the needles were kept for 1 minute to prevent the injection from oozing out.
Rats were divided into two groups: a PBS injection control group and a Walker256 model group. The radiation paw withdrawal latency (PWL) was measured before modeling as the basic pain threshold, and the PWL was measured every other day after modeling as the thermal hyperalgesia threshold. At the same time, the mechanical pain caused by von Frey filament was measured. The threshold of mechanical pain was measured before modeling as the basic pain threshold, and the threshold of mechanical allodynia was measured every other day after modeling.
After successfully establishing the model of tibia cancer pain, continuous intragastric administration was performed for 12 days. The rats in the model group were intragastrically given the same volume of normal saline.

mice [6] = assay: Analgesic experiment of writhing method in mice (acetic acid); format: in vivo, Kunming mice; conditions: 15 mg/kg once on the day of the experiment
[7] = 15 mg/kg on the last day, same side

## CC(C)Cc1ccc(C(C)C(=O)O)cc1 (centres unmarked) [ibuprofen, Ibuprofen]
[1]; 1 h
  after administration ΔT: 0.27 ± 0.27 °C
[1]; 2 h
  after administration ΔT: 0.33 ± 0.43 °C
[1]; 4 h
  after administration ΔT: 0.34 ± 0.38 °C
[1]; 6 h
  after administration ΔT: 1.23 ± 0.24 °C
[1]; 8 h
  after administration ΔT: 1.32 ± 0.24 °C
[1]; 10 h
  after administration ΔT: 1.23 ± 0.39 °C
[2]; 1 h
  after administration ΔT: 0.26 ± 0.26 °C
[2]; 2 h
  after administration ΔT: 0.40 ± 0.31 °C
[2]; 4 h
  after administration ΔT: 0.54 ± 0.38 °C

## spiramycin
[3]
  absolute oral bioavailability: 30-40%

## CN1CC[C@]23c4c5ccc(O)c4O[C@H]2[C@@H](O)C=C[C@H]3[C@H]1C5.Cl [positive control, morphine hydrochloride]
Mice [4]; 30 min
  Percentage of pain threshold increase: 68.11%
Mice [4]; 60 min
  Percentage of pain threshold increase: 54.01%
Mice [4]; 90 min
  Percentage of pain threshold increase: 51.90%
Mice [4]; 120 min
  Percentage of pain threshold increase: 38.17%
[5]; 15 mg/kg on the last day
  analgesic rate, opposite side: 133.3%
  van Frey mechanical pain threshold, opposite side: 6.3 ± 0.5 g
[5]; [7]
  analgesic rate, same side: 205.5%
  van Frey mechanical pain threshold, same side: 5.5 ± 0.2 g
[5]; 80 mg/kg intragastric, 12 days
  analgesic rate, opposite side: 125.9%
  van Frey mechanical pain threshold, opposite side: 6.1 ± 0.2 g
[5]; 80 mg/kg intragastric, 12 days, same side
  van Frey mechanical pain threshold, same side: 5.2 ± 0.6 g
Mice [6]
  analgesic rate: 45.83%
  times of writhing: 30.17 ± 6.14 n
